According to ChEMBL document CHEMBL1614632, “Trend analysis of a database of intravenous pharmacokinetic parameters in humans for 670 drug compounds” (Drug Metab Dispos, 2008):
Blank lines part the entries; values can stand above or below the molecule they belong to. Numbered stars: 1 amine (or outer) side, 2 acyl side, 3 side chain; on linkers, the order of the positions; unused ones are H or OH. Bridge positions count the residues as written; N and C are the ends. Square brackets hold non-standard residues; d marks the D form. Peptide text beside a SMILES is read from it. * marks the point of attachment. X2 = O=C1C[C@@H](C(=O)[*:2])N([*:1])C[C@H]1CS[C@@H]1CN2CCC1CC2; NMePhe(4-NMe2) = CN[C@@H](Cc1ccc(N(C)C)cc1)C(=O)O; Picolinoyl(3-OH) = O=C(c1ncccc1O)*; Phg = N[C@H](C(=O)O)c1ccccc1; dAbu = CC[C@@H](N)C(=O)O

Assays:
clinical [1] = conditions: human, in vivo, iv, Vdss
clinical [2] = conditions: human, in vivo, iv
[3] = human, in vivo, iv
clinical [4] = conditions: human, in vivo, iv, CL
clinical [5] = conditions: human, in vivo, iv; remark: listed apart in the source
clinical [6] = conditions: human, in vivo, iv, t1/2

Structure (SMILES): CC1CNc2c(cccc2S(=O)(=O)N[C@@H](CCCNC(=N)N)C(=O)N2CC[C@@H](C)C[C@@H]2C(=O)O)C1 (stereo partly drawn) [ARGATROBAN]
Vd (clinical [1]): 0.17 L/kg | MRT (clinical [2]): 0.57 h | t1/2 [3]: 0.4 h | clearance (clinical [4]): 5 mL/min/kg

Structure (SMILES): CCN(CC)CCCC(C)Nc1ccnc2cc(Cl)ccc12 (stereo not drawn) [CHLOROQUINE]
Vd (clinical [1]): 140 L/kg | MRT (clinical [2]): 740 h | t1/2 [3]: 570 h | clearance (clinical [4]): 4.1 mL/min/kg

Structure (SMILES): CC[C@H]1NC(=O)[C@@H](NC(=O)c2ncccc2O)[C@@H](C)OC(=O)[C@H](c2ccccc2)NC(=O)[C@@H]2CC(=O)[C@H](CS[C@@H]3CN4CCC3CC4)CN2C(=O)[C@H](Cc2ccc(N(C)C)cc2)N(C)C(=O)[C@@H]2CCCN2C1=O [QUINUPRISTIN] ({Picolinoyl(3-OH)}-T[dAbu]P[NMePhe(4-NMe2)][X2][Phg]; ester 1-C)
Vd (clinical [1]): 0.67 L/kg | MRT (clinical [2]): 0.7 h | fraction unbound (clinical [5]): 0.34 | half-life (clinical [6]): 0.87 h | clearance (clinical [4]): 16 mL/min/kg

Structure (SMILES): CC(NCCc1ccc(O)cc1)C(O)c1ccc(O)cc1 (stereo not drawn) [RITODRINE]
Vd (clinical [1]): 4.4 L/kg | MRT (clinical [2]): 2.4 h | fraction unbound (clinical [5]): 0.64 | half-life (clinical [6]): 2.6 h | clearance (clinical [4]): 31 mL/min/kg

Structure (SMILES): CCN(C)C(=O)Oc1cccc([C@H](C)N(C)C)c1 [RIVASTIGMINE]
Vd (clinical [1]): 1.3 L/kg | MRT (clinical [2]): 1.9 h | fraction unbound (clinical [5]): 0.6 | half-life (clinical [6]): 1.4 h | clearance (clinical [4]): 12 mL/min/kg

Structure (SMILES): C=CC[N+]1([C@H]2C[C@H]3[C@@H]4CC[C@H]5C[C@H](O)[C@@H](N6CCOCC6)C[C@]5(C)[C@H]4CC[C@]3(C)[C@H]2OC(C)=O)CCCC1 [ROCURONIUM]
Vd (clinical [1]): 0.21 L/kg | MRT (clinical [2]): 0.95 h | fraction unbound (clinical [5]): 0.54 | half-life (clinical [6]): 1.6 h | clearance (clinical [4]): 3.7 mL/min/kg

Structure (SMILES): CN(C)[C@@H]1C(O)=C(C(=O)NCN2CCCC2)C(=O)[C@@]2(O)C(O)=C3C(=O)c4c(O)cccc4[C@@](C)(O)[C@H]3C[C@@H]12 [ROLITETRACYCLINE]
Vd (clinical [1]): 0.54 L/kg | MRT (clinical [2]): 9.3 h | fraction unbound (clinical [5]): 0.5 | half-life (clinical [6]): 8.8 h | clearance (clinical [4]): 0.97 mL/min/kg

Structure (SMILES): CCCN1CCCC[C@H]1C(=O)Nc1c(C)cccc1C [ROPIVACAINE]
Vd (clinical [1]): 0.75 L/kg | MRT (clinical [2]): 2.3 h | fraction unbound (clinical [5]): 0.06 | half-life (clinical [6]): 2.2 h | clearance (clinical [4]): 5.5 mL/min/kg

Structure (SMILES): CN[C@@H]1[C@@H](O)[C@@H](O[C@@H]2[C@@H](O)[C@H](O[C@H]3OC(CN)=CC[C@H]3N)[C@@H](N)C[C@H]2N)OC[C@]1(C)O [SISOMICIN]
Vd (clinical [1]): 0.19 L/kg | MRT (clinical [2]): 3.2 h | fraction unbound (clinical [5]): 0.15 | half-life (clinical [6]): 2.4 h | clearance (clinical [4]): 1 mL/min/kg

Continued, values first:

Vd (clinical [1]): 0.67 L/kg | MRT (clinical [2]): 1.4 h | fraction unbound (clinical [5]): 1 | half-life (clinical [6]): 1.4 h | clearance (clinical [4]): 8.2 mL/min/kg
Structure (SMILES): Cc1cn([C@H]2C=C[C@@H](CO)O2)c(=O)[nH]c1=O [STAVUDINE]

Vd (clinical [1]): 0.34 L/kg | MRT (clinical [2]): 7.3 h | fraction unbound (clinical [5]): 0.65 | half-life (clinical [6]): 4.3 h | clearance (clinical [4]): 0.78 mL/min/kg
Structure (SMILES): [H]/N=C(/N)N[C@H]1[C@H](O)[C@@H](O)[C@H](O[C@@H]2O[C@@H](C)[C@](O)(C=O)[C@H]2O[C@@H]2O[C@@H](CO)[C@H](O)[C@@H](O)[C@@H]2NC)[C@@H](N/C(N)=N\[H])[C@@H]1O [STREPTOMYCIN]

Vd (clinical [1]): 0.15 L/kg | MRT (clinical [2]): 1.6 h | fraction unbound (clinical [5]): 0.5 | half-life (clinical [6]): 1.2 h | clearance (clinical [4]): 1.6 mL/min/kg
Structure (SMILES): CC1(C)S[C@@H]2[C@H](NC(=O)C(c3ccccc3)S(=O)(=O)O)C(=O)N2[C@H]1C(=O)O (stereo partly drawn) [SULBENICILLIN]

Vd (clinical [1]): 0.54 L/kg | MRT (clinical [2]): 1400 h | fraction unbound (clinical [5]): 0.001 | half-life (clinical [6]): 1200 h | clearance (clinical [4]): 0.0057 mL/min/kg
Structure (SMILES): Cc1ccc(C(=O)Nc2ccc(S(=O)(=O)O)c3cc(S(=O)(=O)O)cc(S(=O)(=O)O)c23)cc1NC(=O)c1cccc(NC(=O)Nc2cccc(C(=O)Nc3cc(C(=O)Nc4ccc(S(=O)(=O)O)c5cc(S(=O)(=O)O)cc(S(=O)(=O)O)c45)ccc3C)c2)c1 [SURAMIN]

Vd (clinical [1]): 11 L/kg | MRT (clinical [2]): 3.3 h | fraction unbound (clinical [5]): 0.25 | half-life (clinical [6]): 3.3 h | clearance (clinical [4]): 56 mL/min/kg
Structure (SMILES): Nc1c2c(nc3ccccc13)CCCC2 [TACRINE]

Vd (clinical [1]): 1.5 L/kg | MRT (clinical [2]): 140 h | fraction unbound (clinical [5]): 0.11 | half-life (clinical [6]): 150 h | clearance (clinical [4]): 0.2 mL/min/kg
Structure (SMILES): CCCCC/C=C\CCC(=O)N[C@H]1[C@H](Oc2c3cc4cc2Oc2ccc(cc2Cl)[C@@H](O[C@@H]2O[C@H](CO)[C@@H](O)[C@H](O)[C@H]2NC(C)=O)[C@@H]2NC(=O)[C@H](NC(=O)[C@@H]4NC(=O)[C@H]4NC(=O)[C@@H](Cc5ccc(c(Cl)c5)O3)NC(=O)[C@H](N)c3ccc(O)c(c3)Oc3cc(O)cc4c3)c3ccc(O)c(c3)-c3c(O[C@H]4O[C@H](CO)[C@@H](O)[C@H](O)[C@@H]4O)cc(O)cc3[C@@H](C(=O)O)NC2=O)O[C@H](CO)[C@@H](O)[C@@H]1O [TEICOPLANIN A2-1]

Vd (clinical [1]): 3 L/kg | MRT (clinical [2]): 3.6 h | fraction unbound (clinical [5]): 0.41 | half-life (clinical [6]): 12 h | clearance (clinical [4]): 14 mL/min/kg
Structure (SMILES): CC[C@H]1OC(=O)[C@H](C)C(=O)[C@H](C)[C@@H](O[C@@H]2O[C@H](C)C[C@H](N(C)C)[C@H]2O)[C@](C)(OC)C[C@@H](C)C(=O)[C@H](C)[C@H]2N(CCCCn3cnc(-c4cccnc4)c3)C(=O)O[C@]12C [TELITHROMYCIN]

Vd (clinical [1]): 0.41 L/kg | MRT (clinical [2]): 37 h | fraction unbound (clinical [5]): 0.0044 | half-life (clinical [6]): 16 h | clearance (clinical [4]): 0.19 mL/min/kg
Structure (SMILES): COc1cc([C@@H]2c3cc4c(cc3[C@@H](O[C@@H]3O[C@@H]5CO[C@@H](c6cccs6)O[C@H]5[C@H](O)[C@H]3O)[C@H]3COC(=O)[C@H]23)OCO4)cc(OC)c1O [TENIPOSIDE]
